Results published in patent publication US20230365582A1, “NOVEL COMPOUNDS HAVING INHIBITORY ACTIVITY ON PROSTAGLANDIN E2 RECEPTOR AND USES THEREOF” (KANAPH THERAPEUTICS INC., priority 2020, published 2023).

Key:
[1] = biological target: T1, hEP4 (Homo sapiens, UniProt P35408); assay: hEP4 cAMP assay; assay type: cell-based; conditions: HEK293 cells overexpressing hEP4; PGE2 agonist 20 nM; graded per Table 21; read-out: IC50 (nM) EP4 cAMP
T1 construct: expressed in transfected cells; host or cells: HEK293
T1 sequence (P35408 whole entry): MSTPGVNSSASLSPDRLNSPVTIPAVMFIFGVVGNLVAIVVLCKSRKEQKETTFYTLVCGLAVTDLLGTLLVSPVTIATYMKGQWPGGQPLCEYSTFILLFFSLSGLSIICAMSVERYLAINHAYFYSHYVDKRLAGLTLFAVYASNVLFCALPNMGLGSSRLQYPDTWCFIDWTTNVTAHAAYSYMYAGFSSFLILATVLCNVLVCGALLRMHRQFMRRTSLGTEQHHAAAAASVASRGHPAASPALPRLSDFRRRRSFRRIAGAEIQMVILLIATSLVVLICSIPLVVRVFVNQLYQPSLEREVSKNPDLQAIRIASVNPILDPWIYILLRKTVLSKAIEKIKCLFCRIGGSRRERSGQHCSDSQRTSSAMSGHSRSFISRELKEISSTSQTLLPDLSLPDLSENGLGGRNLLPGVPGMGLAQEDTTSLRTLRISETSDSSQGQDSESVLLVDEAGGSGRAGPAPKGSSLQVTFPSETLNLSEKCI
In short: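 HEK293 cells overexpressing hEP4, starved 4 h, were treated with compound (10 μM-0.001 nM) plus 20 nM PGE2 (EC50-80) in HBSS buffer with 0.5 mM IBMX for 18.5 min at room temperature. cAMP was read by TR-FRET (665/615 nm) as % of DMSO control; IC50 from 4-parameter fit, median of multiple experiments.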

[2] = biological target: T2, hEP2 (Homo sapiens, UniProt P43116); assay: hEP2 cAMP assay; assay type: cell-based; conditions: HEK293 cells overexpressing hEP2; PGE2 agonist 400 pM; graded per Table 21; read-out: IC50 (nM) EP2 cAMP
T2 construct: expressed in transfected cells; host or cells: HEK293
T2 sequence (P43116 whole entry): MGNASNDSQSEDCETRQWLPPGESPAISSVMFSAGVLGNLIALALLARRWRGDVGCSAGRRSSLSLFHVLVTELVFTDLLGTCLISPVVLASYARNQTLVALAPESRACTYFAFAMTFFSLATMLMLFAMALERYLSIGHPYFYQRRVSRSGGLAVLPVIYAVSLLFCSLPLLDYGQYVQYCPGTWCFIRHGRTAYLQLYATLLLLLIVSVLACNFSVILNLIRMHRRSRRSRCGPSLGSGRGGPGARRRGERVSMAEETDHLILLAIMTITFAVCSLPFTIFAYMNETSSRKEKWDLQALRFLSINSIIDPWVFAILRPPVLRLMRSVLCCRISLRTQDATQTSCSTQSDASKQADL
In short: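 HEK293 cells overexpressing hEP2, serum-starved 4 h, then 1,000 cells/well treated with compound (10 μM–0.001 nM) plus 400 pM PGE2 (about EC50-80) in HBSS buffer with 0.5 mM IBMX for 12 min at room temperature. cAMP measured by TR-FRET (665/615 nm) as % of DMSO control; IC50 from 4-parameter fit, median of repeats.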

| Compound | IC50 [1] | IC50 [2] |
| --- | --- | --- |
| COc1cc(OC)cc(-c2ccc(Cn3ccc4scc(C(=O)NC5CC6(C5)CC(C(=O)O)C6)c43)cc2)c1 (stereo not drawn) [Example 89, 6-(4-((3′,5′-dimethoxy-[1,1′-biphenyl]-4-yl)methyl)-4H-thieno[3,2-b]pyrrole-3-carboxamido)spiro[3.3]heptane-2-carboxylic acid] | < 500 nM | < 500 nM |
| O=C(NC1CC2(C1)CC(C(=O)O)C2)c1csc2ccn(Cc3ccc(-c4cccc(F)c4)cc3)c12 (stereo not drawn) [Example 92, 6-(4-((3′-fluoro-[1,1′-biphenyl]-4-yl)methyl)-4H-thieno[3,2-b]pyrrole-3-carboxamido)spiro[3.3]heptane-2-carboxylic acid] | < 500 nM | < 500 nM |
| COc1cc(F)cc(-c2ccc(Cn3ccc4sc(C)c(C(=O)NC5CC6(C5)CC(C(=O)O)C6)c43)cc2)c1 (stereo not drawn) [Example 95] | < 500 nM | 500 to 5000 nM |
| COc1cc(F)cc(-c2ccc(Cn3ccc4scc(C(=O)NC5CC6(C5)CC(C(=O)O)C6)c43)cc2)c1 (stereo not drawn) [Example 97, 6-4-((3′-fluoro-5′-methoxy[1,1′-biphenyl-4-yl)methyl)-4H-thieno[3,2-b]pyrrole-3-carboxamido)spiro[3.3]heptane-2-carboxylic acid] | < 500 nM | < 500 nM |
| O=C(NC1CC2(C1)CC(C(=O)O)C2)c1csc2ccn(Cc3ccc(-c4cncc(F)c4)cc3)c12 (stereo not drawn) [Example 100, 6-(4-(4-(5-fluoropyridin-3-yl)benzyl)-4H-thieno[3,2-b]pyrrole-3-carboxamido)spiro[3.3]heptane-2-carboxylic acid] | < 500 nM | 500 to 5000 nM |

The next lines start with the values.

| IC50 [1] | IC50 [2] | Compound |
| --- | --- | --- |
| 500 to 5000 nM | 500 to 5000 nM | O=C(NC1CC2(C1)CC(C(=O)O)C2)c1csc2ccn(Cc3ccc(C(F)(F)F)cc3)c12 (stereo not drawn) [Example 90, 6-(4-(4-(trifluoromethyl)benzyl)-4H-thieno[3,2-b]pyrrole-3-carboxamido)spiro[3.3]heptane-2-carboxylic acid] |
| > 10000 nM | > 10000 nM | O=C(NC1CC2(C1)CC(C(=O)O)C2)c1csc2ccn(CCc3ccc(-c4ccccc4)cc3)c12 (stereo not drawn) [Example 91, 6-(4-(2-([1,1′-biphenyl]-4-yl)ethyl)-4H-thieno[3,2-b]pyrrole-3-carboxamido)spiro[3.3]heptane-2-carboxylic acid] |
| 500 to 5000 nM | 5000 to 10000 nM | O=C(NC1CC2(C1)CC(C(=O)O)C2)c1csc2ccn(Cc3ccc(-c4ncccn4)cc3)c12 (stereo not drawn) [Example 93, 6-(4-(4-(pyrimidin-2-yl)benzyl)-4H-thieno[3,2-b]pyrrole-3-carboxamido)spiro[3.3]heptane-2-carboxylic acid] |
| < 500 nM | 500 to 5000 nM | O=C(NC1CC2(C1)CC(C(=O)O)C2)c1csc2ccn(Cc3cnc(-c4ccccc4)nc3)c12 (stereo not drawn) [Example 94, 6-(4-((2-phenylpyrimidin-5-yl)methyl)-4H-thieno[3,2-b]pyrrole-3-carboxamido)spiro[3.3]heptane-2-carboxylic acid] |
| 500 to 5000 nM | > 10000 nM | Cc1sc2ccn(CC#Cc3ccccc3)c2c1C(=O)NC1CC2(C1)CC(C(=O)O)C2 (stereo not drawn) [Example 96, 6-(2-methyl-4-(3-phenylprop-2-yn-1-yl)-4H-thieno[3,2-b]pyrrole-3-carboxamido)spiro[3.3]heptane-2-carboxylic acid] |
| 500 to 5000 nM | > 10000 nM | O=C(NC1CC2(C1)CC(C(=O)O)C2)c1csc2ccn(CC#Cc3ccccc3)c12 (stereo not drawn) [Example 98, 6-(2-4-(3-phenylprop-2-yn-1-yl)-4H-thieno[3,2-b]pyrrole-3-carboxamido)spiro[3.3]heptane-2-carboxylic acid] |
| < 500 nM | > 10000 nM | O=C(NC1CC2(C1)CC(C(=O)O)C2)c1csc2ccn(Cc3ccc(-c4cccnc4)cc3)c12 (stereo not drawn) [Example 99, 6-(4-(4-(pyridin-3-yl)benzyl)-4H-thieno[3,2-b]pyrrole-3-carboxamido)spiro[3.3]heptane-2-carboxylic acid] |
